The test system of the test is hypoxia-induced VEGF production in HeLa cells. Briefly: cells. The test is classed as cell-based, human. The note with it: Homo sapiens, HeLa.

SMILES strings stand for the structures.

Regarding `C=CCOC(=O)N1CCc2c([nH]c3ccc(Cl)cc23)C1c1ccc(OCCCO)cc1` (centres unmarked) [Compound 1060], the EC50 (commonly the midpoint of the concentration-response curve) was under 8 nM. Regarding `CC(C)COC(=O)N1CCc2c([nH]c3ccc(Cl)cc23)C1c1ccc(OCCCO)cc1` (centres unmarked) [Compound 1061], the EC50 is under 8 nM. `O=C(COc1ccc(C2c3[nH]c4ccc(Cl)cc4c3CCN2C(=O)Oc2ccc(F)cc2)cc1)NCCO` (centres unmarked) [Compound 1063] showed a 50% effective concentration (EC50) of 8 to 40 nM. As for `O=C(COc1ccc(C2c3[nH]c4ccc(Cl)cc4c3CCN2C(=O)Oc2ccc(F)cc2)cc1)N1CCN(CCO)CC1` (centres unmarked) [Compound 1064], the figure is 8 to 40 nM; as for `O=C(Oc1ccc(Cl)cc1)N1CCc2c([nH]c3ccc(Cl)cc23)[C@@H]1c1ccc(OC[C@H](O)CN2CCOCC2)cc1` [Compound 1070], under 8 nM; as for `O=C(Oc1ccc(Cl)cc1)N1CCc2c([nH]c3ccc(Cl)cc23)[C@@H]1c1ccc(OC[C@@H](O)CN2CCOCC2)cc1` [Compound 1071], under 8 nM.

Turning to `C=CCOC(=O)N1CCc2c([nH]c3ccc(Cl)cc23)C1c1ccc(OCCCN2CCN(C)CC2)cc1` (centres unmarked) [Compound 1072], the concentration giving a half-maximal response (EC50) is under 8 nM. As for `CCOC(=O)N1CCc2c([nH]c3ccc(Cl)cc23)C1c1ccc(OCC(O)Cn2nccn2)cc1` (centres unmarked) [Compound 1073], the figure is under 8 nM; as for `CC(C)OC(=O)N1CCc2c([nH]c3ccc(Cl)cc23)C1c1ccc(OCCCO)cc1` (centres unmarked) [Compound 1074], under 8 nM. In turn, `O=C(Oc1ccccc1)N1CCc2c([nH]c3ccc(Cl)cc23)C1c1ccc(OCCCN2CCOCC2)cc1` (centres unmarked) [Compound 1075] returned an EC50 of 8 to 40 nM. As for `CN1CCN(CCCOc2ccc(C3c4[nH]c5ccc(Cl)cc5c4CCN3C(=O)Oc3ccccc3)cc2)CC1` (centres unmarked) [Compound 1076], the figure is 40 to 200 nM. On to `C=CCOC(=O)N1CCc2c([nH]c3ccc(Cl)cc23)C1c1ccc(OCCCN2CCOCC2)cc1` (centres unmarked) [Compound 1079], for which the EC50 is under 8 nM. Under `C=CCOC(=O)N1CCc2c([nH]c3ccc(Cl)cc23)C1c1ccc(OCCCn2ccnn2)cc1` (centres unmarked) [Compound 1080] stands under 8 nM; under `C=CCOC(=O)N1CCc2c([nH]c3ccc(Cl)cc23)C1c1ccc(OCCCn2nccn2)cc1` (centres unmarked) [Compound 1081], under 8 nM. As for `COCCOC(=O)N1CCc2c([nH]c3ccc(Cl)cc23)C1c1ccc(OCCCn2ccnn2)cc1` (centres unmarked) [Compound 1083], the figure is 8 to 40 nM; as for `COCCOC(=O)N1CCc2c([nH]c3ccc(Cl)cc23)C1c1ccc(OCCCn2nccn2)cc1` (centres unmarked) [Compound 1084], 8 to 40 nM. Under `CCOC(=O)N1CCc2c([nH]c3ccc(Cl)cc23)C1c1ccc(OCC(O)CNC(=O)COC)cc1` (centres unmarked) [Compound 1085] stands under 8 nM. In the case of `COc1cc(C2c3[nH]c4ccc(Cl)cc4c3CCN2C(=O)Oc2ccc(Cl)cc2)ccc1OCCN1CCOCC1` (centres unmarked) [Compound 1092], the EC50 lay within 8 to 40 nM.

Turning to `COc1cc(C2c3[nH]c4ccc(Cl)cc4c3CCN2C(=O)Oc2ccc(Cl)cc2)ccc1OCCCN1CCOCC1` (centres unmarked) [Compound 1093], the EC50 lay in the range of 8 to 40 nM. As for `COc1cc(C2c3[nH]c4ccc(Cl)cc4c3CCN2C(=O)Oc2ccc(Cl)cc2)ccc1OCCCCN1CCOCC1` (centres unmarked) [Compound 1094], the figure is 8 to 40 nM; as for `COc1ccc(C2c3[nH]c4ccc(Cl)cc4c3CCN2C(=O)Oc2ccc(Cl)cc2)cc1OCCN1CCOCC1` (centres unmarked) [Compound 1095], 200 to 1000 nM; as for `COc1ccc(C2c3[nH]c4ccc(Cl)cc4c3CCN2C(=O)Oc2ccc(Cl)cc2)cc1OCCCN1CCOCC1` (centres unmarked) [Compound 1096], 200 to 1000 nM. As for `COc1ccc(C2c3[nH]c4ccc(Cl)cc4c3CCN2C(=O)Oc2ccc(Cl)cc2)cc1OCCCCN1CCOCC1` (centres unmarked) [Compound 1097], the figure is 40 to 200 nM; as for `O=C(Oc1ccc(Cl)cc1)N1CCc2c([nH]c3ccc(Cl)cc23)C1c1ccc(OCCCN2CCC(CO)C2)cc1` (centres unmarked) [Compound 1098], 8 to 40 nM; as for `CN1CCC(COc2ccc(C3c4[nH]c5ccc(Cl)cc5c4CCN3C(=O)Oc3ccc(Cl)cc3)cc2)CC1` (centres unmarked) [Compound 1099], 8 to 40 nM. With `COC(=O)N1CCc2c([nH]c3ccc(Cl)cc23)C1c1ccc(OCCCN2CCOCC2)cc1` (centres unmarked) [Compound 1100], the EC50 is 8 to 40 nM. Under `COC(=O)N1CCc2c([nH]c3ccc(Cl)cc23)C1c1ccc(OCCCN2CCN(C)CC2)cc1` (centres unmarked) [Compound 1101] stands 40 to 200 nM; under `CC(C)OC(=O)N1CCc2c([nH]c3ccc(Cl)cc23)C1c1ccc(OCCCN2CCOCC2)cc1` (centres unmarked) [Compound 1102], under 8 nM; under `CC(C)OC(=O)N1CCc2c([nH]c3ccc(Cl)cc23)C1c1ccc(OCCCN2CCN(C)CC2)cc1` (centres unmarked) [Compound 1103], 8 to 40 nM. As for `CC(C)COC(=O)N1CCc2c([nH]c3ccc(Cl)cc23)C1c1ccc(OCCCN2CCN(C)CC2)cc1` (centres unmarked) [Compound 1104], the figure is 8 to 40 nM.

Take `CCCOC(=O)N1CCc2c([nH]c3ccc(Cl)cc23)C1c1ccc(OCCCN2CCOCC2)cc1` (centres unmarked) [Compound 1105]: the EC50 is under 8 nM.

For `O=C(OCc1ccccc1)N1CCc2c([nH]c3ccc(Cl)cc23)C1c1ccc(OCCCN2CCOCC2)cc1` (centres unmarked) [Compound 1106], the EC50 was under 8 nM.

As to `O=C(OCc1ccccc1)N1CCc2c([nH]c3ccc(Cl)cc23)C1c1ccc(OCCCn2ccnn2)cc1` (centres unmarked) [Compound 1107], the EC50 is under 8 nM.

As for `COc1ccc(OC(=O)N2CCc3c([nH]c4ccc(Cl)cc34)C2c2ccc(OCCCN3CCN(C)CC3)cc2)cc1` (centres unmarked) [Compound 1108], the concentration for a half-maximal effect (EC50) lay within 8 to 40 nM. As for `COCCOC(=O)N1CCc2c([nH]c3ccc(Cl)cc23)C1c1ccc(OCCCO)cc1` (centres unmarked) [Compound 1109], the figure is under 8 nM; as for `O=C(Oc1ccc(Cl)cc1)N1CCc2c([nH]c3ccc(Cl)cc23)C1c1ccc(OCCCO)cc1` (centres unmarked) [Compound 1111], under 8 nM; as for `CCOC(=O)N1CCc2c([nH]c3ccc(Cl)cc23)C1c1cccc(OCCCN2CCN(C)CC2)c1` (centres unmarked) [Compound 1112], over 1000 nM. As to `CN1CCN(CCCOc2cccc(C3c4[nH]c5ccc(Cl)cc5c4CCN3C(=O)Oc3ccc(F)cc3)c2)CC1` (centres unmarked) [Compound 1113], the EC50 lay in the range of 200 to 1000 nM.

As to `CCOC(=O)N1CCc2c([nH]c3ccc(Cl)cc23)C1c1cccc(OCCCN2CCOCC2)c1` (centres unmarked) [Compound 1114], the EC50 was in the range of 8 to 40 nM. Under `O=C(Oc1ccc(F)cc1)N1CCc2c([nH]c3ccc(Cl)cc23)C1c1cccc(OCCCN2CCOCC2)c1` (centres unmarked) [Compound 1115] stands 8 to 40 nM; under `CCOC(=O)N1CCc2c([nH]c3ccc(Cl)cc23)C1c1cccc(OCCCN2CCSCC2)c1` (centres unmarked) [Compound 1116], 8 to 40 nM. As for `O=C(Oc1ccc(F)cc1)N1CCc2c([nH]c3ccc(Cl)cc23)C1c1cccc(OCCCN2CCSCC2)c1` (centres unmarked) [Compound 1117], the figure is 8 to 40 nM.

In the case of `CCOC(=O)N1CCc2c([nH]c3ccc(Cl)cc23)C1c1cccc(OCCCN(CCOC)CCOC)c1` (centres unmarked) [Compound 1118], the EC50 lay within 200 to 1000 nM. Under `COCCN(CCCOc1cccc(C2c3[nH]c4ccc(Cl)cc4c3CCN2C(=O)Oc2ccc(F)cc2)c1)CCOC` (centres unmarked) [Compound 1119] stands 40 to 200 nM; under `CCOC(=O)N1CCc2c([nH]c3ccc(Cl)cc23)C1c1cccc(OCCCN(C)CCOC)c1` (centres unmarked) [Compound 1120], 200 to 1000 nM. Under `COCCN(C)CCCOc1cccc(C2c3[nH]c4ccc(Cl)cc4c3CCN2C(=O)Oc2ccc(F)cc2)c1` (centres unmarked) [Compound 1121] stands over 1000 nM; under `CCOC(=O)N1CCc2c([nH]c3ccc(Cl)cc23)C1c1cccc(OCCCn2ccnc2)c1` (centres unmarked) [Compound 1122], over 1000 nM.

The record behind these values is patent publication US11613538B2, “Method of inhibiting or reducing a viral infection” (PTC Therapeutics, Inc., priority 2009, dated 2023).
